Structures are written as SMILES. Bounds are passed on as bounds.

As usually defined, the IC50 is the concentration that gives 50% inhibition.

The target in this experiment is USP14 (Homo sapiens (Human), UniProt P54578). As to the kind of experiment: Usp14 inhibition assay (Example 57B, B-series compounds). The format is biochemical. The conditions noted are these: IC50 class; average value from a minimum of two experimental determinations. The source says: Example 57B: Usp14 Inhibition Assay
USP14, sequence (P54578 whole entry, looked up): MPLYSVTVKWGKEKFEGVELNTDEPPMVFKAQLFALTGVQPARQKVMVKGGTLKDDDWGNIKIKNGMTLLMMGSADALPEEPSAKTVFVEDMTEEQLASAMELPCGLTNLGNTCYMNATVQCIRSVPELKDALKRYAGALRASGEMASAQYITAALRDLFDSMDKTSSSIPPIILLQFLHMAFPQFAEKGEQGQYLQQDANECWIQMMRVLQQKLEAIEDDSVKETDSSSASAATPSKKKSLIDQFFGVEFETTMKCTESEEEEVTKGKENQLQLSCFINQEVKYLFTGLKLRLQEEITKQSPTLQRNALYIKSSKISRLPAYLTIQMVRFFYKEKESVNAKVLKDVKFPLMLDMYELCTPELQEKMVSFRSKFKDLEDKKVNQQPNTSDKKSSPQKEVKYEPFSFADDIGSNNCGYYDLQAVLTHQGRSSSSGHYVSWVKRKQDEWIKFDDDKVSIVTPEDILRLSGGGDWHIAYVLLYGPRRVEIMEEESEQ
The IC50 values in the Table below represent the average value from a minimum of two experimental determinations.
In the case of `Cc1cc(C(=O)CN2[C@H]3CCC[C@@H]2[C@H](O)C3)c(C)n1-c1ccc(C#N)cc1` (racemic) [Example 82B, (±)-4-(3-(2-((1S,5R,6R)-6-Hydroxy-8-azabicyclo[3.2.1]octan-8-yl)acetyl)-2,5-dimethyl-1H-pyrrol-1-yl)benzonitrile], the IC50 is 50 to 500 nM.

As to `Cc1cc(C(=O)CN2[C@H]3CCC[C@@H]2[C@@H](O)C3)c(C)n1-c1ccc(C#N)cc1` (racemic) [Example 83B, (±)-4-(3-(2-((1S,5R,6S)-6-Hydroxy-8-azabicyclo[3.2.1]octan-8-yl)acetyl)-2,5-dimethyl-1H-pyrrol-1-yl)benzonitrile], the IC50 lay in the range of 50 to 500 nM.

Regarding `Cc1cc(C(=O)CN2C3CCC2[C@@H](O)C3)c(C)n1-c1ccc(C#N)c(F)c1` (mixture of isomers) [Example 90B, (±)-2-Fluoro-4-(3-(2-((2R)-2-hydroxy-7-azabicyclo[2.2.1]heptan-7-yl)acetyl)-2,5-dimethyl-1H-pyrrol-1-yl)benzonitrile], the IC50 was below 50 nM.

The compound `Cc1cc(C(=O)CN2C3CCC2[C@@H](O)C3)c(C)n1-c1ccc(C#N)cc1F` (mixture of isomers) [Example 91B, (±)-3-Fluoro-4-(3-(2-((2R)-2-hydroxy-7-azabicyclo[2.2.1]heptan-7-yl)acetyl)-2,5-dimethyl-1H-pyrrol-1-yl)benzonitrile] registered an IC50 of 50 to 500 nM.

Turning to `Cc1cc(C(=O)CN2C3CC4CC2C(C3)O4)c(C)n1-c1ccc(C#N)cc1` (racemic) [Example 92B, (±)-4-(3-(2-((2R,3aS,5R,6aS)-Hexahydro-4H-2,5-methanofuro[3,2-b]pyrrol-4-yl)acetyl)-2,5-dimethyl-1H-pyrrol-1-yl)benzonitrile], the IC50 was in the range of 50 to 500 nM.

`Cc1cc(C(=O)CN2C3CCC2[C@@H](O)C3)c(C)n1-c1cc(F)c(C#N)c(F)c1` (mixture of isomers) [Example 94B, (±)-2,6-Difluoro-4-(3-(2-((2R)-2-hydroxy-7-azabicyclo[2.2.1]heptan-7-yl)acetyl)-2,5-dimethyl-1H-pyrrol-1-yl)benzonitrile] came in with an IC50 of 50 to 500 nM.

With `Cc1c(C#N)c(C(=O)CN2C3CCC2[C@@H](O)C3)c(C)n1-c1ccc(C#N)cc1` (mixture of isomers) [Example 95B, (±)-1-(4-Cyanophenyl)-4-(2-((2R)-2-hydroxy-7-azabicyclo[2.2.1]heptan-7-yl)acetyl)-2,5-dimethyl-1H-pyrrole-3-carbonitrile], the IC50 is above 500 nM.

As to `Cc1c(C(=O)CN2C3CCC2[C@@H](O)C3)cc(Cl)n1-c1ccc(C#N)cc1` (mixture of isomers) [Example 96B, (±)-4-(5-Chloro-3-(2-((2R)-2-hydroxy-7-azabicyclo[2.2.1]heptan-7-yl)acetyl)-2-methyl-1H-pyrrol-1-yl)benzonitrile], the IC50 was 50 to 500 nM.

`Cc1c(C(=O)CN2C3CCC2[C@@H](O)C3)c(Cl)c(Cl)n1-c1ccc(C#N)cc1` (mixture of isomers) [Example 97B, (±)-4-(2,3-Dichloro-4-(2-((2R)-2-hydroxy-7-azabicyclo[2.2.1]heptan-7-yl)acetyl)-5-methyl-1H-pyrrol-1-yl)benzonitrile] returned an IC50 of 50 to 500 nM.

For `Cc1c(C(=O)CN2C3CCC2[C@@H](O)C3)cc(C2CC2)n1-c1ccc(C#N)cc1` (mixture of isomers) [Example 98B, (±)-4-(5-Cyclopropyl-3-(2-((2R)-2-hydroxy-7-azabicyclo[2.2.1]heptan-7-yl)acetyl)-2-methyl-1H-pyrrol-1-yl)benzonitrile], the IC50 fell in the range of 50 to 500 nM.

With `Cc1cc(C(=O)CN2C3CCC2[C@@H](O)C3)c(C)n1-c1ccc(C#N)c(F)c1F` (mixture of isomers) [Example 99B, (±)-2,3-Difluoro-4-(3-(2-((2R)-2-hydroxy-7-azabicyclo[2.2.1]heptan-7-yl)acetyl)-2,5-dimethyl-1H-pyrrol-1-yl)benzonitrile], the IC50 was above 500 nM.

In turn, `Cc1cc(C(=O)CN2[C@@H]3CC[C@H]2[C@@H](C)C3)c(C)n1-c1ccc(C#N)cc1` (racemic) [Example 100B, (±)-4-(2,5-Dimethyl-3-(2-((1S,2S,4R)-2-methyl-7-azabicyclo[2.2.1]heptan-7-yl)acetyl)-1H-pyrrol-1-yl)benzonitrile] yielded an IC50 above 500 nM.

`Cc1c(F)c(C(=O)CN2[C@@H]3CC[C@H]2[C@@H](C)C3)c(C)n1-c1ccc(C#N)cc1` (racemic) [Example 101B, (±)-4-(3-Fluoro-2,5-dimethyl-4-(2-((1S,2S,4R)-2-methyl-7-azabicyclo[2.2.1]heptan-7-yl)acetyl)-1H-pyrrol-1-yl)benzonitrile] showed an IC50 of 50 to 500 nM.

On to `Cc1cc(C(=O)CN2[C@@H]3CC[C@H]2[C@@H](C(F)(F)F)C3)c(C)n1-c1ccc(C#N)cc1` (racemic) [Example 102B, (±)-4-(2,5-Dimethyl-3-(2-((1R,2R,4S)-2-(trifluoromethyl)-7-azabicyclo[2.2.1]heptan-7-yl)acetyl)-1H-pyrrol-1-yl)benzonitrile], for which the IC50 was above 500 nM.

`Cc1c(F)c(C(=O)CN2[C@@H]3CC[C@H]2[C@@H](C(F)(F)F)C3)c(C)n1-c1ccc(C#N)cc1` (racemic) [Example 103B, (±)-4-(3-Fluoro-2,5-dimethyl-4-(2-((1R,2R,4S)-2-(trifluoromethyl)-7-azabicyclo[2.2.1]heptan-7-yl)acetyl)-1H-pyrrol-1-yl)benzonitrile] yielded an IC50 above 500 nM.

Compound `Cc1cc(C(=O)CN2[C@@H]3CC[C@H]2[C@@H](OC(F)(F)F)C3)c(C)n1-c1ccc(C#N)cc1` (racemic) [Example 105B, (±)-4-(2,5-Dimethyl-3-(2-((1R,2R,4S)-2-(trifluoromethoxy)-7-azabicyclo[2.2.1]heptan-7-yl)acetyl)-1H-pyrrol-1-yl)benzonitrile] registered an IC50 above 500 nM.

Compound `Cc1cc(C(=O)CN2C3CCC2[C@@H]2COC[C@H]32)c(C)n1-c1ccc(C#N)cc1` (racemic) [Example 106B, (±)-4-(2,5-Dimethyl-3-(2-((3aR,4R,7S,7aS)-octahydro-4,7-epiminoisobenzofuran-8-yl)acetyl)-1H-pyrrol-1-yl)benzonitrile] displayed an IC50 of 50 to 500 nM.

Regarding `Cc1cc(C(=O)CN2C3CCC2[C@@H](O)C3)c(C)n1-c1cc(F)c(C#N)cc1F` (mixture of isomers) [Example 107B, (±)-2,5-Difluoro-4-(3-(2-((2R)-2-hydroxy-7-azabicyclo[2.2.1]heptan-7-yl)acetyl)-2,5-dimethyl-1H-pyrrol-1-yl)benzonitrile], the half-maximal inhibitory concentration (IC50) was 50 to 500 nM.

The compound `Cc1c(C(=O)CN2C3CCC2[C@@H](O)C3)cc(C2CCC2)n1-c1ccc(C#N)cc1` (mixture of isomers) [Example 108B, (±)-4-(5-Cyclobutyl-3-(2-((2R)-2-hydroxy-7-azabicyclo[2.2.1]heptan-7-yl)acetyl)-2-methyl-1H-pyrrol-1-yl)benzonitrile] came in with an IC50 below 50 nM.

`Cc1c(C(=O)CN2C3CCC2[C@@H](O)C3)cc(C(F)(F)F)n1-c1ccc(C#N)cc1` (mixture of isomers) [Example 109B, (±)-4-(3-(2-((2R)-2-Hydroxy-7-azabicyclo[2.2.1]heptan-7-yl)acetyl)-2-methyl-5-(trifluoromethyl)-1H-pyrrol-1-yl)benzonitrile] registered an IC50 of 50 to 500 nM.

`Cc1c(C(=O)CN2C3CCC2[C@@H](O)C3)cc(C2CCCC2)n1-c1ccc(C#N)cc1` (mixture of isomers) [Example 110B, (±)-4-(5-Cyclopentyl-3-(2-((2R)-2-hydroxy-7-azabicyclo[2.2.1]heptan-7-yl)acetyl)-2-methyl-1H-pyrrol-1-yl)benzonitrile] returned an IC50 of 50 to 500 nM.

Consider `Cc1c(C(=O)CN2[C@@H]3CC[C@H]2[C@@H](O)C3)cc(C2CCCCC2)n1-c1ccc(C#N)cc1` (racemic) [Example 111B, (±)-4-(5-Cyclohexyl-3-(2-((1R,2R,4S)-2-hydroxy-7-azabicyclo[2.2.1]heptan-7-yl)acetyl)-2-methyl-1H-pyrrol-1-yl)benzonitrile], for which the IC50 lay within 50 to 500 nM.

Compound `Cc1c(C(=O)CN2[C@@H]3CC[C@H]2[C@@H](O)C3)cc(C(C)C)n1-c1ccc(C#N)cc1` (racemic) [Example 112B, (±)-4-(3-(2-((1R,2R,4S)-2-Hydroxy-7-azabicyclo[2.2.1]heptan-7-yl)acetyl)-5-isopropyl-2-methyl-1H-pyrrol-1-yl)benzonitrile] yielded an IC50 of 50 to 500 nM.

The compound `Cc1c(C(=O)CN2C3CCC2[C@@H](O)C3)cc(C(C)(C)C)n1-c1ccc(C#N)cc1` (mixture of isomers) [Example 113B, (±)-4-(5-(tert-Butyl)-3-(2-((2R)-2-hydroxy-7-azabicyclo[2.2.1]heptan-7-yl)acetyl)-2-methyl-1H-pyrrol-1-yl)benzonitrile] displayed an IC50 of 50 to 500 nM.

`CCC(C)c1cc(C(=O)CN2C3CCC2[C@@H](O)C3)c(C)n1-c1ccc(C#N)cc1` (mixture of isomers) [Example 114B, (±)-4-(5-(sec-Butyl)-3-(2-((1R,2R,4S)-2-hydroxy-7-azabicyclo[2.2.1]heptan-7-yl)acetyl)-2-methyl-1H-pyrrol-1-yl)benzonitrile] showed an IC50 of 50 to 500 nM.

As for `Cc1c(C(=O)CN2C3CCC2[C@@H](O)C3)cc(CC(F)(F)F)n1-c1ccc(C#N)cc1` (mixture of isomers) [Example 115B, (±)-4-(3-(2-((2R)-2-Hydroxy-7-azabicyclo[2.2.1]heptan-7-yl)acetyl)-2-methyl-5-(2,2,2-trifluoroethyl)-1H-pyrrol-1-yl)benzonitrile], the IC50 fell in the range of 50 to 500 nM.

In turn, `Cc1c(F)c(C(=O)CN2C3CC4CC2CC(C3)O4)c(C)n1-c1ccc(C#N)c(F)c1` (racemic) [Example 116B, (±)-4-(3-(2-((1r,3r)-2-Oxa-6-azaadamantan-6-yl)acetyl)-4-fluoro-2,5-dimethyl-1H-pyrrol-1-yl)-2-fluorobenzonitrile] displayed an IC50 of 50 to 500 nM.

`Cc1cc(C(=O)CN2C3CCC2[C@@H](O)C3)c(C)n1-c1ccc(Cl)c(F)c1` (mixture of isomers) [Example 117B, (±)-1-(1-(4-Chloro-3-fluorophenyl)-2,5-dimethyl-1H-pyrrol-3-yl)-2-((2R)-2-hydroxy-7-azabicyclo[2.2.1]heptan-7-yl)ethan-1-one] had a 50% inhibitory concentration (IC50) of 50 to 500 nM.

Compound `Cc1cc(C(=O)CN2C3CCC2[C@@H](O)C3)c(C)n1-c1cc(F)c(Cl)c(F)c1` (mixture of isomers) [Example 118B, (±)-1-(1-(4-Chloro-3,5-difluorophenyl)-2,5-dimethyl-1H-pyrrol-3-yl)-2-((2R)-2-hydroxy-7-azabicyclo[2.2.1]heptan-7-yl)ethan-1-one] registered an IC50 above 500 nM.

The record behind these values is US11560385B2, “Proteasome activity enhancing compounds” (Proteostasis Therapeutics, Inc., priority 2018, dated 2023).
